According to US20200207830A1, “TREM2 MUTANTS RESISTANT TO SHEDDASE CLEAVAGE” (NOVARTIS AG, priority 2017, published 2020):
No end group written: not given here.

How the values were obtained:
ADAM17 [1] = molecular target: T1, ADAM17 (Homo sapiens, UniProt P78536); experiment: In vitro cleavage of TREM2 stalk region peptides by ADAM17 (HPLC); format: biochemical; conditions: neutral buffer, up to 48 hours, HPLC of parent peptide
Excerpt: FIGS. 5A-5E show ADAM17 cleaves TREM2 stalk region peptides in vitro at H157-S158. […] All peptides were obtained with an N-terminal 7-methoxycoumarin (Mca) fluorescent tag […]. Underlined amino acids indicates main sheddase cleavage site. AA112-171: SEQ ID NO: 24; Peptide 1: SEQ ID NO: 25; Peptide 2: SEQ ID NO: 26; Peptide 3: SEQ ID NO: 27; Peptide la: SEQ ID NO: 28; Peptide 2a: SEQ ID NO: 29; Peptide 4: SEQ ID NO: 30; Peptide 5: SEQ ID NO: 31; Peptide 6: SEQ ID NO: 32. […] FIG. 5C discloses SEQ ID NOS 83, 51 and 84, respectively, in order of appearance.
(§1) In order to identify the cleavage site of ADAM10/ADAM17 within the stalk region of TREM2, in vitro cleavage patterns of stalk region-derived peptides were investigated and confirmed the cleavage site by determination of the C-terminus of shed soluble TREM2 from cell culture supernatants. A series of peptides covering the stalk region were designed for in vitro investigation of ADAM10/ADAM17 cleavage (FIG. 5A). All peptides were obtained with an N-terminal 7-methoxycoumarin (Mca) fluorescent tag. Peptides 1-3, 1a and 2a were incubated with ADAM17 in neutral buffer for up to 48 hours, and reaction was followed by HPLC analysis of aliquots withdrawn at different time points.
(§2) HPLC-MS analysis of the reaction mixture of peptide3/ADAM17 identified one major product, SISRSLLEGEIPFP-NH2(SEQ ID NO: 51), together with 2 minor cleavage products (FIGS. 5B-5C). […] At these time points there was essentially no substrate left. Therefore, it can be concluded that the minor cleavage products originate from secondary ADAM17 cleavage of the main product.

ADAM10 [2] = molecular target: T2, ADAM10 (Homo sapiens, UniProt O14672); experiment: In vitro cleavage of TREM2 stalk region peptides by ADAM10; format: biochemical; conditions: data not shown
T2 sequence (O14672 214-748): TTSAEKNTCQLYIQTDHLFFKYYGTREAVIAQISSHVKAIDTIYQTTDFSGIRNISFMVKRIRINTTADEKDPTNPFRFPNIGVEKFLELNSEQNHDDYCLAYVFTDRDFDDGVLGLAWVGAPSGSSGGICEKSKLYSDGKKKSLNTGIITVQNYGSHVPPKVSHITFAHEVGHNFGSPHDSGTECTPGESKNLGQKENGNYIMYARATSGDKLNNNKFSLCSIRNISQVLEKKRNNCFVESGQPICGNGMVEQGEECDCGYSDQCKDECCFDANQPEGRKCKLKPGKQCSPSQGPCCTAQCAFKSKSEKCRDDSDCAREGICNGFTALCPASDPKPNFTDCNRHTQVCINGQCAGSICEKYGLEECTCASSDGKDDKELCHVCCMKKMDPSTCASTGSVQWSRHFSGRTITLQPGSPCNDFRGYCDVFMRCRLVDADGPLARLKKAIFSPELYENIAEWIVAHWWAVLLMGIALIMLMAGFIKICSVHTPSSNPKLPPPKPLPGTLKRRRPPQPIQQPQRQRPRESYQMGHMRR
Excerpt: as §1, §2
Recent literature gave insight into ADAM10 and ADAM17 preferences for the cleavage of peptides and proteins (Caescu et al., Biochem J 424, 79-88, 2009; Tucher et al., J Proteome Res 13, 2205-2214, 2014). […] After searching for the least preferred amino acids in substrates of ADAM10 and 17, isoleucine was identified as never occurring in P1 of ADAM substrates, and a very low preference for aspartate or proline in P1′ and in P2′. […] In these peptides the H-SI cleavage site was replaced with IPP, IPD, and IDP, respectively.

ADAM17 [3] = molecular target: T1, ADAM17; experiment: In vitro inhibition of recombinant ADAM17; format: biochemical; conditions: Hepes buffer pH 7.5
ADAM10 [4] = molecular target: T2, ADAM10; experiment: In vitro inhibition of recombinant ADAM10; format: biochemical; conditions: Hepes buffer pH 7.5
Description: FIG. 2E is a line graph showing inhibition of recombinant ADAM10 and ADAM17 by DPC333 and GI254023 in vitro in Hepes buffer at pH 7.5.
Enzyme selectivity of the ADAM inhibitors applied was determined in an in vitro cleavage assay and both inhibitors were used over a broad concentration range to investigate effects on TREM2 cell surface expression in CHO-hDAP12-hTREM2 cells and human M2A macrophages.

CHO-hDAP12-hTREM2 cells = experiment: Live cell imaging of TREM2 cell surface expression in CHO-hDAP12-hTREM2 cells; format: cell-based; conditions: overnight treatment
Excerpt: (§3) CHO cells were transfected to co-express hDAP12 and hTREM2 using Lipofectamine LTX reagent (Thermofischer) according to the manufacturer's recommendations. One positive clone was selected and designated CHO-hDAP12-hTREM2. Human M2A macrophages were obtained from buffy coat using a negative isolation kit for monocytes (Stem cell technologies) and differentiated for 5 days in RPMI1640 medium with Glutamax (Gibco) supplemented with 10% FBS (Gibco), PenStrep (Gibco), 1% Sodium Pyruvate (Gibco), 0.025 M HEPES Buffer (Gibco), 0.05 mM β-mercaptoethanol (Gibco), M-CSF (40 ng/ml) and IL-4 (50 ng/ml). Cell surface TREM2 was detected by FACS as described above.
(§4) Human M2A macrophages or CHO-hDAP12-hTREM2 were seeded on 384 well plates (Greiner) and treated with ADAM inhibitors DPC333 or GI254023 at concentrations indicated in the figures. 16 h later cells were treated for 30 minutes with PMA (50 ng/ml) or 0.1% DMSO for 30 minutes. Plates were put on ice and stained with goat anti human TREM2 antibody AF1828 (R&D Systems) or isotype control and Hoechst stain followed by incubation with the secondary Alexa Fluor 488 conjugated anti goat antibody (Molecular Probes). Images were acquired using an InCe112000 analyzer (GE Healthcare). For image quantification the free open source software CellProfiler was applied.
To determine the contribution of ADAM10 or ADAM17 to shedding of TREM2 ectodomain, selective inhibitors were identified: DPC333 (Qian et al., Drug Metabolism and Disposition: the Biological Fate of Chemicals 35, 1916-1925, 2007) and GI254023 (Hundhausen et al., Blood. 2003; 102:1186-1195). DPC333 and GI254023 were characterized for inhibitory selectivity towards ADAM10 and ADAM17. […] Using live cell imaging, cell surface expression of hTREM2 was assessed in CHO-hDAP12-hTREM2 cells after overnight treatment of the cells with the two ADAM inhibitors under conditional shedding conditions (FIG. 2A) or after treatment of the cells with PMA (FIG. 2B). […] This effect might be attributed to true ADAM10 inhibition or it might be caused by unspecific inhibition of ADAM17 by GI254023 when used at high concentrations. […] To get closer to a physiological cellular system, a similar experiment was conducted in human M2A macrophages differentiated from CD^14+ human monocytes (FIGS. 2C-2D).

human M2A macrophages = experiment: Live cell imaging of TREM2 cell surface expression in human M2A macrophages; format: cell-based
Excerpt: as §3, §4
To determine the contribution of ADAM10 or ADAM17 to shedding of TREM2 ectodomain, selective inhibitors were identified: DPC333 (Qian et al., Drug Metabolism and Disposition: the Biological Fate of Chemicals 35, 1916-1925, 2007) and GI254023 (Hundhausen et al., Blood. 2003; 102:1186-1195). DPC333 and GI254023 were characterized for inhibitory selectivity towards ADAM10 and ADAM17. […] Using live cell imaging, cell surface expression of hTREM2 was assessed in CHO-hDAP12-hTREM2 cells after overnight treatment of the cells with the two ADAM inhibitors under conditional shedding conditions (FIG. 2A) or after treatment of the cells with PMA (FIG. 2B). […]

THP1 cells = experiment: Cell surface TREM2 and sTREM2 in THP1 CRISPR cell clones; format: cell-based, human
Description: THP1 cells stably coexpressing Cas9 and a blasticidin resistance gene delivered by lentivirus were cultured in RPMI medium containing 10% FBS, 1% L-glutamine, 1% pen/strep, and 10 μg/ml of blasticidin (Thermo Fisher Scientific). The cells were cultured at 37° C. in 5% CO2 atmosphere.
THP1-Cas9 cells were infected with lentiviruses expressing the puromycin resistance gene and sgRNAs (for vector design, see Hoffman, Proceedings of the National Academy of Sciences of the United States of America 111, 3128-3133, 2014) targeting either ADAM10 ([…], SEQ ID NO: 75) or ADAM17 ([…], SEQ ID NO: 76). Lentiviral packaging was carried out in HEK293T cells as described previously. Briefly, 30 μL of lentiviral sgRNA supernatant was added to 1×10^6 THP1-Cas9 cells in 2 ml medium containing 5 μg/ml polybrene (Sigma) and spun at 300 g for 90 minutes in a 6-well plate. After 24 hours the cells were spun down and resuspended in fresh culture medium containing 1.5 μg/mL puromycin. After 4 weeks of weekly media changes, genomic DNA was isolated using a Quick-gDNA miniprep kit (Zymo Research) to assess the insertions and deletions (indels) present in the pool by next-generation sequencing (NGS). To isolate clones containing only frameshift indels, cells were plated at limiting dilution into 96-well plates. Upon expansion of the clones, they were assayed by NGS and clones containing only frameshift alleles were selected for downstream assays.
To confirm the results in Example 2, a genetic approach was used to further investigate the contribution of ADAM10/17 to TREM2 shedding. Human monocytic THP1 cells were chosen as model system which endogenously expresses TREM2. Employing the CRISPR/CAS9 technology, clones were generated that lack expression of ADAM10 (AD10 H4) or ADAM17 (AD17 G12) as well as a control cell line (Ctrl gRNA). Absence of gene products was verified by FACS analysis or Western blot (FIGS. 3C-3D).
Cell surface expressed TREM2 and sTREM2 were assessed in the three cell lines in the same experiment using three different conditions: no treatment reflecting constitutive shedding, PMA treatment that maximally activates shedding, and finally PMA and DPC333 treatment. […] Maximally activating sheddases with PMA leads to a strong reduction of cell surface TREM2 both in the control cell line and in the ADAM10 deficient clone. This is reflected in a strong increase in sTREM2. In the ADAM17 deficient cell line, PMA treatment also leads to a reduction of cell surface TREM2, but to a smaller extent than in the control CRISPR clone. Also, the increase in sTREM2 is smaller compared to PMA treated control CRISPR clone and ADAM10 deficient clone. However, the cleavage of TREM2 in the AD17 G12 clone in the presence of PMA must be caused by a sheddase other than ADAM17. […]

[5] = conditional shedding (steady state) conditions, FIG. 2A
[6] = then PMA-treated cells, FIG. 2B

T1 sequence (P78536 215-824): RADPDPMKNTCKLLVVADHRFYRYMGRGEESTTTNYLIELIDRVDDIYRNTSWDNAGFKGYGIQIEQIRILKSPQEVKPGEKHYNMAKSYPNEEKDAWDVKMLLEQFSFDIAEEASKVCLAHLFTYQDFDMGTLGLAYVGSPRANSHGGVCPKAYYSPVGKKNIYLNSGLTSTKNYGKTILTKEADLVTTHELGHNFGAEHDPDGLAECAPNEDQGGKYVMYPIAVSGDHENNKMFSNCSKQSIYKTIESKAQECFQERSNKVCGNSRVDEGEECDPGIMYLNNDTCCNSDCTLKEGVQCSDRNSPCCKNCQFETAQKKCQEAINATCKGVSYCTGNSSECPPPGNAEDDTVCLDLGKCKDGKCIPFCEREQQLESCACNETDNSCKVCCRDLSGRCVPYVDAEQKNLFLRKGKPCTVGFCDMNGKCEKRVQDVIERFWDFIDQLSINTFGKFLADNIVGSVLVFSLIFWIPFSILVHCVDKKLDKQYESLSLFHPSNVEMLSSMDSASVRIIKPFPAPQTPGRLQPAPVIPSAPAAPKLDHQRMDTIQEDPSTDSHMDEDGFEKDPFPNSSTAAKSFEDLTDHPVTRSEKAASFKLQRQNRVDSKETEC

Row | Compound | Cleavage by ADAM17 (ADAM17 [1]) | Cleavage by ADAM10 (ADAM10 [2]) | IC50 (ADAM17 [3]) | IC50 (ADAM10 [4]) | TREM2 cell surface levels (CHO-hDAP12-hTREM2 cells; [5]) | TREM2 cell surface levels (CHO-hDAP12-hTREM2 cells; [6]) | TREM2 cell surface expression (human M2A macrophages; steady-state shedding, FIG. 2C) | TREM2 cell surface expression (human M2A macrophages; additional PMA treatment, FIG. 2D) | TREM2 cell surface levels (THP1 cells; co-treatment with PMA and DPC333, AD10 H4 cells (ADAM10 knockout)) | TREM2 cell surface levels (THP1 cells; co-treatment with PMA and DPC333, AD17 G12 clone (ADAM17 knockout)) | TREM2 cell surface levels (THP1 cells; co-treatment with PMA and DPC333, Ctrl gRNA cells) | sTREM2 (THP1 cells; co-treatment with PMA and DPC333 compared to PMA treatment only, AD17 G12 clone)
1 | Peptide 4: TREM2 stalk peptide, H-SI cleavage site replaced with IPP; SEQ ID NO: 30 (DAHVEIPPSRSLLEGEIPFP) | resistant to in vitro cleavage | cleavage resistant | – | – | – | – | – | – | – | – | – | –
2 | CNC(=O)[C@@H](NC(=O)[C@H](CCCc1ccccc1)[C@H](C)N(O)C=O)C(C)(C)C [GI254023, (2R,3 S)-3-(formyl-hydroxyamino)-2-(3-phenyl-1-propyl) butanoic acid [(1S)-2,2-dimethyl-1-methylcarbamoyl-1-propyl] amide] | – | – | 196 nM | 1.5 nM | limited effect | complete lack of effect | small effect | – | – | – | – | –
3 | Cc1cc(COc2ccc([C@]3(N)CCN([C@H](CC(C)C)C(=O)NO)C3=O)cc2)c2ccccc2n1 [DPC333] | – | – | < 0.6 nM | 5.3 nM | dose-dependently increases | dose-dependently increases | increases TREM2 cell surface expression dose-dependently | increases TREM2 cell surface expression dose-dependently | restored | smaller effects | restored | strongly reduced
4 | Peptide 6: TREM2 stalk peptide, H-SI cleavage site replaced with IDP; SEQ ID NO: 32 (DAHVEIDPSRSLLEGEIPFP) | resistant to in vitro cleavage | slowly cleaved | – | – | – | – | – | – | – | – | – | –
5 | Peptide 3: TREM2 stalk region derived synthetic peptide with 7-methoxycoumarin (Mca) tag; SEQ ID NO: 27 (DAHVEHSISRSLLEGEIPFP; also: 7-methoxycoumarin (Mca) tag, position not given here) | Significant cleavage | very similar cleavage pattern | – | – | – | – | – | – | – | – | – | –
